Test results from ChEMBL document CHEMBL6127018, “Molecular design and evaluation of aza-polycyclic carbamoyl pyridones as HIV-1 integrase strand transfer inhibitors” (Bioorg Med Chem Lett, 2024).

Experiments:
[1] = target: Human immunodeficiency virus type 1 integrase (Human immunodeficiency virus 1, UniProt Q7ZJM1); assay: Inhibition of recombinant HIV-1 integrase by microtiter plate integration assay
[2] = system: Human immunodeficiency virus 1; assay: Antiviral activity against HIV-1 infected in human MT4 cells; format: functional, organism-based; details: Human immunodeficiency virus 1, MT4
[3] = Cytotoxicity against human MT4 cells; format: toxicity, cell-based
[4] = Selectivity ratio of PAEC50 for antiviral activity against HIV-1 infected in human MT4 cells in presence of human serum albumin to EC50 for antiviral activity against HIV-1 infected in human MT4 cells; format: functional, Human immunodeficiency virus 1
[5] = system: Human immunodeficiency virus 1; assay: Antiviral activity against HIV-1 harboring raltegravir resistant Q148H mutant infected in human HeLa-CD4 cells assessed as fold change; format: functional
[6] = Half-life in rat at 1 mg/kg, iv; format: ADME, organism-based; details: in vivo
[7] = Half-life in cynomolgus monkey at 1 mg/kg, iv; format: ADME, organism-based, Macaca fascicularis; details: in vivo
[8] = Cmax in rat at 5 mg/kg, po or 1 mg/kg, iv; format: ADME, organism-based; details: in vivo
[9] = Cmax in cynomolgus monkey at 5 mg/kg, po or 1 mg/kg, iv; format: ADME, organism-based, Macaca fascicularis; details: in vivo
[10] = Oral bioavailability in rat at 5 mg/kg; format: ADME, organism-based; details: in vivo
[11] = Oral bioavailability in cynomolgus monkey at 5 mg/kg; format: ADME, organism-based, Macaca fascicularis; details: in vivo
[12] = Free fraction in rat serum at 5 mg/kg, po or 1 mg/kg, iv; format: ADME, organism-based
[13] = Free fraction in cynomolgus monkey serum at 5 mg/kg, po or 1 mg/kg, iv; format: ADME, organism-based, Macaca fascicularis

Chain of Human immunodeficiency virus type 1 integrase (Q7ZJM1 whole entry): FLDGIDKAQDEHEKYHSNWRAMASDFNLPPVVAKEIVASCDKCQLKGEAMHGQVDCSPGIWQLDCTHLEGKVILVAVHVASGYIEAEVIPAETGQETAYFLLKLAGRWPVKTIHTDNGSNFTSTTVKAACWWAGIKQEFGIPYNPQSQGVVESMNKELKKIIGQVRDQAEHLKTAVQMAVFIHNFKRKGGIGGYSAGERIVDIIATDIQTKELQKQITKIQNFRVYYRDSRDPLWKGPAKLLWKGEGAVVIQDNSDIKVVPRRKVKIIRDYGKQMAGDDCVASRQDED

| SMILES | IC50 [1] [nM] | EC50 [2] [nM] | CC50 [3] [nM] | Selectivity ratio [4] | fold change (FC) [5] | half-life [6] [h] | half-life [7] [h] | Cmax [8] [ng/mL] | Cmax [9] [ng/mL] | bioavailability [10] [%] | bioavailability [11] [%] | fraction unbound [12] | fraction unbound [13] |
| --- | --- | --- | --- | --- | --- | --- | --- | --- | --- | --- | --- | --- | --- |
| CN1NCn2cc(C(=O)NCc3ccc(F)cc3F)c(=O)c(O)c2C1=O | 4.8 | 3.9 | 34000 | 12 |  |  |  |  |  |  |  |  |  |
| COCCCN1CN(C)n2cc(C(=O)NCc3ccc(F)cc3F)c(=O)c(O)c2C1=O | 5.6 | 1.3 | 18000 | 11 | 0.93 |  |  |  |  |  |  |  |  |
| CC(=O)NCCN1Cn2cc(C(=O)NCc3ccc(F)cc3F)c(=O)c(O)c2C(=O)N1C | 9 | 120 | > 50000 | 2.8 |  |  |  |  |  |  |  |  |  |
| CN1CN(Cc2ccc(F)cc2)C(=O)c2c(O)c(=O)c(C(=O)NCc3ccc(F)cc3F)cn21 | 4.5 | 1.7 | > 50000 | 25 | 0.51 |  |  |  |  |  |  |  |  |
| CCN(CC)CCN1CN(CCOC)C(=O)c2c(O)c(=O)c(C(=O)NCc3ccc(F)cc3F)cn21 | 22 | 13 | 11000 | 1.4 | 2.3 |  |  |  |  |  |  |  |  |
| CN(C)CCN1CN(C)n2cc(C(=O)NCc3ccc(F)cc3F)c(=O)c(O)c2C1=O | 11 | 4.8 | 12000 | 2.2 | 5 |  |  |  |  |  |  |  |  |
| COCCN1C(=O)c2c([O-])c(=O)c(C(=O)NCc3ccc(F)cc3F)cn2CN1C.[Na+] |  |  |  |  |  | 21.9 | 3.1 | 9330 | 385 | 21 | 6.1 | 0.0014 | 0.0118 |
| COCCN1CN(Cc2ccccc2)n2cc(C(=O)NCc3ccc(F)cc3F)c(=O)c(O)c2C1=O | 3.5 | 1.9 | 5000 | 17 | 1.1 |  |  |  |  |  |  |  |  |
| CN1CN(Cc2cccs2)C(=O)c2c(O)c(=O)c(C(=O)NCc3ccc(F)cc3F)cn21 | 4.5 | 1.7 | > 50000 | 96 | 0.72 |  |  |  |  |  |  |  |  |
| COCCN1CN(C(c2ccccc2)c2ccccc2)n2cc(C(=O)NCc3ccc(F)cc3F)c(=O)c(O)c2C1=O |  | 57000 |  |  |  |  |  |  |  |  |  |  |  |
| COCCN1CN(CC(C)C)n2cc(C(=O)NCc3ccc(F)cc3F)c(=O)c(O)c2C1=O | 6.1 | 3.5 | 13000 | 620 | 0.6 |  |  |  |  |  |  |  |  |
| CN1Cn2cc(C(=O)NCc3ccc(F)cc3F)c(=O)c(O)c2C(=O)N1 | 4.5 | 29 | > 50000 | 8.4 |  |  |  |  |  |  |  |  |  |
| CN1C(=O)c2c(O)c(=O)c(C(=O)NCc3ccc(F)cc3F)cn2CN1CCO | 4.7 | 20 | > 50000 | 3.1 |  |  |  |  |  |  |  |  |  |
| COCCN1CN(Cc2ccccn2)n2cc(C(=O)NCc3ccc(F)cc3F)c(=O)c(O)c2C1=O | 9.1 | 2.4 | 7000 | 4.7 | 1.2 |  |  |  |  |  |  |  |  |
| COCCN1CN(C)n2cc(C(=O)NCc3ccc(F)cc3F)c(=O)c(O)c2C1=O | 4.8 | 0.83 | 13000 | 18 | 0.81 |  |  |  |  |  |  |  |  |
| COCCN1CN(CC(=O)N(C)C)n2cc(C(=O)NCc3ccc(F)cc3F)c(=O)c(O)c2C1=O | 5.1 | 15 | 38000 | 5 | 0.9 |  |  |  |  |  |  |  |  |
| CN1CN(C[C@H]2CCCO2)C(=O)c2c(O)c(=O)c(C(=O)NCc3ccc(F)cc3F)cn21 | 4.2 | 1.4 | 9800 | 23 | 1.5 |  |  |  |  |  |  |  |  |
| COCCN1CN(C)n2cc(C(=O)NCc3ccc(F)cc3F)c(=O)c([O-])c2C1=O.[Na+] |  |  |  |  |  | 14.3 | 4.8 | 18000 | 1700 | 46 | 31 | 0.0011 | 0.0072 |
| CN1CN(C[C@@H]2CCCO2)C(=O)c2c(O)c(=O)c(C(=O)NCc3ccc(F)cc3F)cn21 | 4.7 | 1.3 | 14000 | 13 | 1 |  |  |  |  |  |  |  |  |
| CN1CN(Cc2ccco2)C(=O)c2c(O)c(=O)c(C(=O)NCc3ccc(F)cc3F)cn21 | 5.7 | 1.5 | > 50000 | 89 | 0.77 |  |  |  |  |  |  |  |  |

| SMILES | IC50 [1] [nM] | EC50 [2] [nM] | CC50 [3] [nM] | Selectivity ratio [4] | fold change (FC) [5] | half-life [6] [h] | half-life [7] [h] | Cmax [8] [ng/mL] | Cmax [9] [ng/mL] | bioavailability [10] [%] | bioavailability [11] [%] | fraction unbound [12] | fraction unbound [13] |
| --- | --- | --- | --- | --- | --- | --- | --- | --- | --- | --- | --- | --- | --- |
| CCN1Cn2cc(C(=O)NCc3ccc(F)cc3F)c(=O)c(O)c2C(=O)N1 | 4.5 | 11 | > 50000 | 44 |  |  |  |  |  |  |  |  |  |
| COCCN1CN(Cc2cccnc2)n2cc(C(=O)NCc3ccc(F)cc3F)c(=O)c(O)c2C1=O | 6.9 | 3.2 | 8100 | 3.3 | 1.4 |  |  |  |  |  |  |  |  |
| COCCN1CN(CCO)n2cc(C(=O)NCc3ccc(F)cc3F)c(=O)c(O)c2C1=O | 5.4 | 9.4 | 28000 | 13 | 0.7 |  |  |  |  |  |  |  |  |
| CN1Cn2cc(C(=O)NCc3ccc(F)cc3F)c(=O)c([O-])c2C(=O)N1C.[Na+] | 3.7 | 2.4 | > 50000 | 52 |  |  |  |  |  |  |  |  |  |
| C[C@@H]1CCO[C@H]2Cn3cc(C(=O)NCc4ccc(F)cc4F)c(=O)c(O)c3C(=O)N12 [DOLUTEGRAVIR] |  | 2.1 | 15000 |  | 0.74 |  |  |  |  |  |  |  |  |
| O=C(NCc1ccc(F)cc1F)c1cn2c(c(O)c1=O)C(=O)N1CCCCCN1C2 | 6.2 | 3.5 | 17000 | 400 |  |  |  |  |  |  |  |  |  |
| COCCN1C(=O)c2c(O)c(=O)c(C(=O)NCc3ccc(F)cc3F)cn2CN1C | 4.5 | 1.4 | 18000 | 24 | 1.7 |  |  |  |  |  |  |  |  |
| CN1Cn2cc(C(=O)NCc3ccc(F)cc3F)c(=O)c(O)c2C(=O)N1CCO | 4.9 | 15 | > 50000 | 18 |  |  |  |  |  |  |  |  |  |
| CC(C)N1CN(C)n2cc(C(=O)NCc3ccc(F)cc3F)c(=O)c(O)c2C1=O | 5.3 | 1.3 | 3900 | 230 | 0.64 |  |  |  |  |  |  |  |  |
| O=C(NCc1ccc(F)cc1F)c1cn2c(c(O)c1=O)C(=O)N1CCCN1C2 | 3.4 | 2.2 | > 50000 | 12 |  |  |  |  |  |  |  |  |  |
| O=C(NCc1ccc(F)cc1)c1cn2c(c(O)c1=O)C(=O)N1CCCN1C2 | 5.2 | 3.6 | 41000 | 9.1 |  |  |  |  |  |  |  |  |  |
| CCN1CN(CCOC)C(=O)c2c(O)c(=O)c(C(=O)NCc3ccc(F)cc3F)cn21 | 4.9 | 1.3 | 8500 | 110 | 0.73 |  |  |  |  |  |  |  |  |
| CN1CN(C2CC2)C(=O)c2c(O)c(=O)c(C(=O)NCc3ccc(F)cc3F)cn21 | 4.7 | 2 | 12000 | 1000 | 1.5 |  |  |  |  |  |  |  |  |
| CC(C)N1NCn2cc(C(=O)NCc3ccc(F)cc3F)c(=O)c(O)c2C1=O | 4.3 | 1.7 | 15000 | 34 |  |  |  |  |  |  |  |  |  |
| COCCN1Cn2cc(C(=O)NCc3ccc(F)cc3F)c(=O)c(O)c2C(=O)N1C | 4.4 | 1.6 | 15000 | 14 | 2.3 |  |  |  |  |  |  |  |  |
| O=C(NCc1ccc(F)cc1F)c1cn2c(c(O)c1=O)C(=O)N1CCOCCN1C2 | 8.7 | 4.6 | 32000 | 20 |  |  |  |  |  |  |  |  |  |
| CN1CN(CC2CC2)C(=O)c2c(O)c(=O)c(C(=O)NCc3ccc(F)cc3F)cn21 | 4 | 1.3 | 13000 | 360 | 0.85 |  |  |  |  |  |  |  |  |
| C[C@@H]1CCO[C@H]2Cn3cc(C(=O)NCc4ccc(F)cc4F)c(=O)c([O-])c3C(=O)N12.[Na+] [DOLUTEGRAVIR SODIUM] |  |  |  |  |  | 6.2 | 6 | 10700 | 817 | 33 |  | 0.0008 | 0.0058 |
| O=C(NCc1ccc(F)cc1)c1cn2c(c(O)c1=O)C(=O)N1CCCCN1C2 | 4.5 | 1.8 | 23000 | 215 |  |  |  |  |  |  |  |  |  |
| O=C(NCc1ccc(F)cc1F)c1cn2c(c([O-])c1=O)C(=O)N1CCCN1C2.[Na+] |  |  |  |  |  | 27.5 | 3.7 | 6390 | 345 | 13 | 6.4 | 0.0002 | 0.0052 |
